{"source": "patent US20070202079A1", "about": "“Therapeutic compositions and methods useful in modulating protein tyrosine phosphatases” (priority 2006, published 2007)", "key": {"[1]": {"tested_on": "human prostate carcinoma DU145 xenografts", "experiment": "DU145 xenografts in nude mice", "format": "in vivo", "conditions": "daily 440 mg/kg", "experimental": "(§1) Nude mice bearing WM9 or DU145 xenografts were treated with IFN-alpha (500,000 U, s.c., daily), sodium stibogluconate (12 mg Sb, s.c., daily) or both. […] The dosage of sodium stibogluconate corresponds to approximately 440 mg Sb/kg body weight (average mouse body weight 27 g), substantially higher than the standard therapeutic dose of 20 mg Sb/kg and the high dose (143 mg Sb/kg) that was clinically used by accident without serious toxicity. This dose of sodium stibogluconate was based on a previous observation in a pilot study that mice could tolerate daily dose of 20 mg Sb (approximately 700-800 mg Sb/kg). […]\nFor each of the cell lines, each of 16 mice received subcutaneous injection at the chest area of 3×10^6 cells/site (WM9) or 2×10^6 cells/site (DU145), two sites/mouse, on day 0. […] Tumor size was measured with a caliper to determine the two perpendicular diameters of each tumor. Tumor volume was calculated using the method of the NCI (length×width 2 in millimeters/2=volume in cubic millimeters).\nAthymic nude mice (nu/nu, NCR), 4 weeks old (Taconic), were inoculated (s.c.) in the flanks with DU145 cells (3×10^6 cells/site) on day 0. […] Tumor volume was measured and calculated using the formula for a prolate spheroid (V=4/3 7 a^2b) (Lindner, et al. 1997). […]"}, "[2]": {"tested_on": "IFNγ+ cells in human peripheral blood", "experiment": "ELISPOT assays of peripheral blood treated in vitro", "format": "cell-based", "conditions": "comparable conditions"}, "[3]": {"molecular_target": "T1, Flag-PRL-3 (Homo sapiens, UniProt O75365)", "T1 construct": "expressed in transfected cells; host or cells: NIH3T3 (pBabepuro, puromycin-selected)", "T1 sequence (O75365 whole entry)": "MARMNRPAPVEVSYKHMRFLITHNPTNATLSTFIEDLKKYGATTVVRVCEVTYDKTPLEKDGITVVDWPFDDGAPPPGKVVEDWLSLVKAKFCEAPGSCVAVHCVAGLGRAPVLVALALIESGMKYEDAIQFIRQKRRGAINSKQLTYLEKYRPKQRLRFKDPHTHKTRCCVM", "experiment": "immunocomplex PTPase assay, NIH3T3 Flag-PRL-3 transfectants", "format": "cell-based, mouse", "conditions": "cells treated 5 min", "experimental": "Immunocomplex PTPase assays were performed to assess the effects of sodium stibogluconate on intracellular PTPases. Cells were untreated or treated with sodium stibogluconate for 5 minutes, washed with fresh medium and then lysed in cold lysis buffer (50 mM Tris, pH 7.4; 150 mM NaCl; 1% NP40; 2 mM PMSF; 20 μg/ml of Aprotinin). The lysates were incubated with an anti-Flag antibody in immunoprecipitation assays. The immunocomplexes were collected with protein G sepharose beads (Pharmacia) and washed in cold lysis buffer for 4 times. […] C. for 18 hrs. 100 μL of malachite green solution (UBI) was added to each reaction prior to measurement of OD660 to quantify the amounts of free phosphate cleaved by the PTPases from the peptide substrate (Pathak et al., J. Immunol. 167, 3391 (2001)). The remaining 10% contents of individual samples were analyzed by SDS-PAGE/Western blotting to quantify the relative amounts of the phosphatase proteins. […]\nThe effects of sodium stibogluconate on intracellular PTPases were assessed using NIH3T3 or WM9 transfectants. […]"}, "[4]": {"experiment": "toxicity in nude mice", "format": "in vivo", "experimental": "as §1, with “Sb/kg). An observation that the effect of sodium stibogluconate in inhibiting the growth of the cancer cell lines in vitro was dose-dependent with complete or near complete killing of the cancer cells at 100 μg Sb/ml (or […]) was also considered.” for “Sb/kg).”\nAs discussed above, the dosage of sodium stibogluconate used for the treatment of nude mice was 12 mg Sb/mouse, s.c., daily (or approximately 440 mg/kg body weight). […] As an initial step to assess the toxicity of such a high dosage of sodium stibogluconate in nude mice, the effect of sodium stibogluconate on the viability and body weights of WM9 xenografts nude mice during the 25 day period of the study was determined."}}, "note": "Entries after “also recorded” stand apart in the source; their conditions may differ.", "data": [{"smiles": "O.O.O.O.O.O.O.O.O.O=C([O-])[C@@H]1[O][Sb]2([O-])([O][Sb]34([OH])[O][C@H]([C@H](O)CO)[C@H]([O]3)[C@H](C(=O)[O-])[O]4)[O][C@H]([C@H](O)CO)[C@@H]1[O]2.[Na+].[Na+].[Na+]", "note": "[sodium stibogluconate]", "values": [{"measurement": "toxicity in DU145 tumor mice", "setting": "[1]", "result": "no obvious toxicity"}, {"measurement": "cells expressing TH2 cytokine IL-5", "setting": "[2]", "result": "not induced"}, {"measurement": "PTPase activity of immunocomplexes from treated Flag-PRL-3 transfectants", "setting": "[3]", "result": "lack of PTPase activity"}, {"measurement": "viability and tolerance of treated mice", "setting": "[4]; WM9 xenograft mice, 25 days, 12 mg Sb daily (440 mg Sb/kg), IFN-alpha 500,000 U", "result": "survived until the end of the study; also recorded: well tolerated with no serious side effects"}, {"measurement": "tolerated daily dose, pilot study", "setting": "[4]; mice, approximately 700-800 mg Sb/kg", "result": 20, "unit": "mg Sb"}]}]}
